The source of these data is patent US7410955B2, “Therapeutic use of agonist ligands specific to G2A receptor” (Biosynergen, Inc., priority 2002, dated 2008).

This assay deals with myeloperoxidase (MPO) in pulmonary tissues. Description: Systemic LPS-induced acute lung injury model, lung MPO activity. The format is in vivo, ICR mice. As to the method: ICR mice (25-30 g in body weight; MJ Ltd.) were intraperitoneally injected with LPS (induced from E. coli 055:B5) in an amount of 1 mg/kg thereby inducing Sepsis.
The activity of myeloperoxidase (MPO), an indicator of neutrophils, in pulmonary tissues was determined according to the methods of Goldblum et al (J. Appl. physiol. 59: 1978, 1985) and Parey et al (J. Immunol. 160:1007, 1998). First, mice were sacrificed and pulmonary tissues were obtained therefrom. The tissues had been homogenized in potassium phosphate buffer, and centrifuged to obtain pellets. These pellets were sonicated in potassium phosphate buffer containing 0.5% hexadecyltrimethylammonium bromide (HTAB), and incubated at 60° C. for 120 min. After centrifugation, supernatants were obtained. […] Accordingly, the absorbance of the mixture was determined at a wavelength of 460 nm. […]
ICR mice in LPS-induced septicemia model according to Reference Example <1-1> b) were divided into five groups of 7 mice (Sham group, an experimental group-1, an experimental group-2, an experimental group-3 and a control group). […] At 24 hours after LPS had been administered, the activity of MPO, an indicator of neutrophils, in the pulmonary tissues of the mice of each group, was determined as described in Reference Example 2.

The structures appear in SMILES notation.

As to `CCCCCCCCCCCCCCCCCC(=O)OCC(O)COP(=O)([O-])OCC[N+](C)(C)C` (centres unmarked) [1-stearoyl LPC, 1-stearoyl (18:0) lysophosphatidylcholine], the “activity of MPO in pulmonary tissues” value by setting is: (20 mg/kg subcutaneous (experimental group-3), p<0.01) “the most excellent effects”; (5, 10 and 20 mg/kg subcutaneous, 2 and 14 hours after intraperitoneal LPS 1 mg/kg, 24 hours after LPS, vs control group) “suppressed in a concentration-dependent manner”.
